Patent US11999676B2, “Vesicular monoamine transporter-2 ligands and their use in the treatment of psychostimulant abuse” (priority 2016, dated 2024)
Read-outs that look alike come from different tables or passages of the source.

Columns and labels:
[1] = Microsomal stability assay, human liver microsomes; details: for CLint scaled at 0.08 µM / half-life at 0.08 µM: both, human, pooled liver microsomes; for CLint scaled at 0.08 µM: pH 7.4, Microsomal stability assays: Clearance; for half-life at 0.08 µM: pH 7.4, Microsomal stability assays: Half-life
hERG channel = hERG channel (Homo sapiens (Human), UniProt Q12809); experiment: [3H]Dofetilide binding assay, HEK-293 cell membrane preparation; details: [3H]dofetilide, HEK-293 cell membranes; read-out: hERG Binding: Mean Ki ± Standard Deviation
Sequence of hERG channel (Q12809 whole entry): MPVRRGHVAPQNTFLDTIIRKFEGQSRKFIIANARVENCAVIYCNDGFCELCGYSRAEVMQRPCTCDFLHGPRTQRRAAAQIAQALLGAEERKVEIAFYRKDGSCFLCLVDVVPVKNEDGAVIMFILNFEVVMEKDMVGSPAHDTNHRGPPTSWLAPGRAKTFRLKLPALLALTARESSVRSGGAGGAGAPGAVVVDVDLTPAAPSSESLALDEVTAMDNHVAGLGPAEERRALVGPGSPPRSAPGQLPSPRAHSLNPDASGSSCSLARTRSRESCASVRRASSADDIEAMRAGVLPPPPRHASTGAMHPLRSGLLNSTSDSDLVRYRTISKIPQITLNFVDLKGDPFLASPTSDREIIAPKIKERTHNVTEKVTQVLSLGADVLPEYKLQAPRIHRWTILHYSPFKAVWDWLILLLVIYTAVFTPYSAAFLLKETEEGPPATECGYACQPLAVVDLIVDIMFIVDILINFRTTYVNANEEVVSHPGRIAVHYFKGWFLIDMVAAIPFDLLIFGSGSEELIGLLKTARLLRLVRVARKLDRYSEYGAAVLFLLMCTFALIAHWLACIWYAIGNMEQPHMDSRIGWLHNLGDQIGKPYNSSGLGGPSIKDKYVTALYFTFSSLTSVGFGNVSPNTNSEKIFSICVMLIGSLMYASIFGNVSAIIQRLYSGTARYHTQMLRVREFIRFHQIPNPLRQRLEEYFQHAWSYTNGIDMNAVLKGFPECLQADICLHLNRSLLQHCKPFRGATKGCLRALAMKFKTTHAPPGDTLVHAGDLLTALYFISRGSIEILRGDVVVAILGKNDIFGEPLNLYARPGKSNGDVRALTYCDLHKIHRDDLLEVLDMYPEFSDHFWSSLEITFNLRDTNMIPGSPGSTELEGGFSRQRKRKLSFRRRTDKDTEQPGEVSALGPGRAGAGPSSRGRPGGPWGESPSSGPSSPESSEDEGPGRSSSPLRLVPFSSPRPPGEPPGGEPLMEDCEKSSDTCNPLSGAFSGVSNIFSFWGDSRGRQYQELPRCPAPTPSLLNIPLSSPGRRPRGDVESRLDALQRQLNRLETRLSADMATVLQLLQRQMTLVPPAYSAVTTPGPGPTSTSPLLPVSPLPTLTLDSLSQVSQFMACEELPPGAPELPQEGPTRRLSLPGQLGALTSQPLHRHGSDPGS
Procedure: [^3H]Dofetilide binding assays were conducted using commercially available HEK-293 cell membranes which stably express the hERG channel. Membranes were suspended in assay buffer (50 mM Tris, 10 mM KCl, 1 mM MgCl2, pH 7.4) prior to the experiment. […] Aliquots of the HEK-293 cell membrane suspension which contained 5 μg membrane protein were added to tubes containing assay buffer, 5 nM [^3H]dofetilide and a range of concentrations of analog (10 nM-100 μM). Nonspecific binding was determined in the presence of amitriptyline (1 mM). Samples were incubated for 1 hr. at 24° C., followed by rapid filtration. […] The affinity for the [^3H]dofetilide binding site on the hERG channel expressed in the HEK-293 cellular membrane was determined from the analog concentration response curves.

VMAT2 [2] = molecular target: T1, VMAT2 (Rattus norvegicus (Rat), UniProt Q01827); experiment: [3H]Dopamine ([3H]DA) uptake assay, vesicular preparation; assay type: biochemical
VMAT2 [3] = molecular target: T1, VMAT2; details: rat brain synaptic vesicles; read-out: [3H]DTBZ binding (Ki) VMAT2
[4] = Microsomal stability assay, rat liver microsomes; details: for CLint scaled at 0.08 µM / half-life at 0.08 µM: female, Sprague-Dawley, rat, liver microsomes; for CLint scaled at 0.08 µM: pH 7.4, Microsomal stability assays: Clearance; for half-life at 0.08 µM: pH 7.4, Microsomal stability assays: Half-life
Procedure: Each plate holds triplicate samples of two controls (0.4 mM) and up to 14 compounds (0.08 mM) in rat and human liver microsomes. Aliquots of each well of the plate (175 μl of each well) were transferred from the master plate into 5 assay plates. For 0-hr time point, pre-cooled (4° C.) internal standard (437.5 μL, 2 μM caffeine in methanol) was added to the first plate before the reaction starts. NADPH regenerating system solution A (6.05 ml, Fisher Scientific, #NC9255727) was combined with NADPH regenerating system solution B (1.21 ml, Fisher Scientific, #NC9016235) in potassium phosphate buffer (15.8 ml, 0.1 M, pH 7.4, 37° C.). The resulting NADPH solution (43.8 μl) was added to each well of all the 96-well assay plates and mixed with pipette briefly making the final protein and compound concentrations respectively: 0.5 mg/ml, 0.08 μM (0.4 μM for controls). Plates were sealed, and all plates except the 0-hr plate were incubated at 37° C., shaken at a speed of 60 rpm. A single assay plate was tested at each time point: 0.5 hr, 1 hr, 2 hr, and 4 hr. At each time point, 437.5 μL of pre-cooled internal standard was added each well of the plate to quench the reaction. […] 120 μl supernatant was transferred to a 96-well plate, centrifuged again and analyzed by UPLC-MS (Waters Inc., Milford, MA). The compounds and internal standard were detected by selected ion recording (SIR).
The amount of material was measured as a ratio of peak area to the internal standard and graphed. Using the slope from the initial linear portion of this curve, the degradation rate constant is calculated using equation [1].

[5] = [3H]DA uptake, rat, read-out: VMAT2 (rat) Inhibition: Mean Ki ± Standard Deviation
[6] = rat striatal synaptic vesicles, read-out: [3H]DA uptake (Ki) VMAT2

SMILES	CLint scaled at 0.08 µM [1] [mL/min/kg]	half-life at 0.08 µM [1] [h]	Ki (hERG channel) [nM]	Ki (VMAT2 [2]; [5]) [nM]	Ki (VMAT2 [3]) [nM]	Ki (VMAT2 [2]; [6]) [nM]	other results
CC(Cc1ccc(F)cc1)NCCCc1ccccc1 (stereo not drawn) [Compound 126]	11.5	1.8	2050 ± 773	19.3 ± 5.14	–	–	–
COc1ccc(CC(C)N(C)CCCc2ccccc2)cc1 (stereo not drawn) [Compound 30]	–	–	–	–	7110 ± 820	270 ± 38	–
CC(Cc1ccccc1)NCCCCCc1ccccc1 (stereo not drawn) [Compound 17]	–	–	–	–	630	14 ± 1	–
CC(Cc1ccc(NC=O)cc1)NCCCc1ccc(F)cc1 (stereo not drawn) [Compound 88]	13.4	1.6	738 ± 244	12.7 ± 2.85	–	–	–
CC(Cc1ccc([N+](=O)[O-])cc1)NCCCc1ccccc1 (stereo not drawn) [Compound 115]	< 5.2	> 4	285 ± 78.8	19 ± 3.81	–	–	–
COc1ccc(CC(C)NCCCc2ccccc2)cc1 (stereo not drawn) [Compound 26]	–	–	–	–	1270 ± 90	22 ± 3	–
COc1ccc(CC(C)NCCc2ccccc2)cc1 (stereo not drawn) [Compound 24]	–	–	–	–	3770 ± 990	74 ± 2	–
COc1ccc(CCC(C)NCCc2ccc(Br)cc2)cc1 (stereo not drawn) [Compound 34]	–	–	–	–	870 ± 30	10 ± 4	–
COc1ccc(CCCNC(C)Cc2ccc([N+](=O)[O-])cc2)cc1 (stereo not drawn) [Compound 43]	–	–	–	–	1400 ± 400	8 ± 2	–
CC(Cc1ccncc1)NCCCc1ccc(F)cc1 (stereo not drawn) [Compound 186]	4.3	4.8	3320 ± 1930	72.4 ± 29.8	–	–	–
CC(Cc1ccc(O)cc1)NCCc1ccccc1 (stereo not drawn) [Compound 35]	–	–	–	–	2600 ± 400	47 ± 6	–
CC(Cc1ccc(Br)cc1)NCCCc1ccccc1 (stereo not drawn) [Compound 11]	–	–	–	–	700 ± 63	8 ± 1	–
CC(Cc1ccc([N+](=O)[O-])cc1)NCCc1ccccc1 (stereo not drawn) [Compound 41]	–	–	–	–	5100 ± 1200	60 ± 7	–
CC(Cc1ccc(F)cc1)NCCCc1ccc(-c2ccnn2C)cc1 (stereo not drawn) [Compound 166]	34.3	0.6	2200 ± 251	46.5 ± 8.97	–	–	–
CC(Cc1ccc([N+](=O)[O-])cc1)NCCCc1ccccc1 (stereo not drawn) [Compound 42]	–	–	–	–	2000 ± 300	13 ± 4	–
CC(Cc1ccc(Br)cc1)NCCOc1ccccc1 (stereo not drawn) [Compound 20]	–	–	–	–	2000 ± 100	13 ± 9	–
CC(Cc1ccc([N+](=O)[O-])cc1)NCCCc1ccc(F)cc1 (stereo not drawn) [Compound 118]	< 5.2	> 4	206 ± 137	7.08 ± 1.29	–	–	–
COc1ccc(CCC(C)NCCCc2ccccc2)cc1 (stereo not drawn) [Compound 32]	–	–	–	–	4700 ± 400	30 ± 2	–
C[C@@H](Cc1ccccc1)NCCCc1ccccc1 [Compound 6]	–	–	–	–	750 ± 140	65 ± 4	–

SMILES	CLint scaled at 0.08 µM [1] [mL/min/kg]	half-life at 0.08 µM [1] [h]	Ki (hERG channel) [nM]	Ki (VMAT2 [2]; [5]) [nM]	Ki (VMAT2 [3]) [nM]	Ki (VMAT2 [2]; [6]) [nM]	other results
CC(Cc1ccc(Br)cc1)NCCc1ccccc1 (stereo not drawn) [Compound 3]	–	–	–	–	1230 ± 130	33 ± 7	–
COc1ccc(CCCNC(C)Cc2ccccc2)cc1 (stereo not drawn) [Compound 8]	–	–	–	–	2200 ± 110	14 ± 3	–
CC(Cc1ccc(F)cc1)NCCCc1ccc(NC=O)cc1 (stereo not drawn) [Compound 70]	23	0.9	2600 ± 711	22.5 ± 4.48	–	–	–
CC(CCc1ccccc1)N(C)CCCc1ccccc1 (stereo not drawn) [Compound 51]	–	–	–	–	17200 ± 6330	360 ± 34	–
COc1ccc(CC(C)NCCCc2ccccc2)cc1OC (stereo not drawn) [Compound 46]	–	–	–	–	3800 ± 100	140 ± 13	–
CC(Cc1ccccc1)NCCOc1ccccc1 (stereo not drawn) [Compound 19]	–	–	–	–	4100 ± 300	59 ± 7	–
CC(Cc1ccccc1)NCCc1ccc(O)cc1 (stereo not drawn) [Compound 21]	–	–	–	–	1500 ± 200	120 ± 10	–
CC(Cc1ccc(F)cc1)NCCCc1ccc(Br)cc1 (stereo not drawn) [Compound 146]	< 5.2	> 4	546 ± 199	22.1 ± 6.5	–	–	–
CC(Cc1ccccc1)NCCc1ccc(O)c(O)c1 (stereo not drawn) [Compound 23]	–	–	–	–	3400 ± 600	92 ± 17	–
CC(Cc1ccc(N)cc1)NCCCc1ccccc1 (stereo not drawn) [Compound 45]	–	–	–	–	2800 ± 700	36 ± 3	–
CC(Cc1ccncc1)NCCCc1ccc(Br)cc1 (stereo not drawn) [Compound 168]	6	3.5	1780 ± 468	41 ± 11.1	–	–	–
CC(Cc1ccc(F)cc1)NCCCc1ccc(Cl)cc1 (stereo not drawn) [Compound 188]	4.7	4.4	467 ± 280	22 ± 7.72	–	–	–
CC(Cc1ccc(N)cc1)NCCCc1ccc(F)cc1 (stereo not drawn) [Compound 109]	25.2	0.8	2590 ± 792	19.2 ± 4.43	–	–	–
CC(Cc1ccccc1)NCCCc1ccc(Br)cc1 (stereo not drawn) [Compound 218]	9.5	2.2	421 ± 38.1	14.2 ± 2.17	–	–	–
COc1ccc(CCCNC(C)Cc2ccc(Br)cc2)cc1 (stereo not drawn) [Compound 16]	–	–	–	–	460 ± 80	12 ± 3	–
CC(Cc1ccccc1)NCCCc1ccc(I)cc1 (stereo not drawn) [Compound 214]	–	–	3040 ± 1370	6.86 ± 1.81	–	–	Microsomal stability assays: Clearance [1]: 17.6 mL/min/kg; Microsomal stability assays: Half-life [1]: 1.2 h
CC(Cc1ccccc1)NCCCc1ccncc1 (stereo not drawn) [Compound 204]	5.8	3.6	8460 ± 4580	49.1 ± 3.51	–	–	–
CC(Cc1ccc(N)cc1)NCCCc1ccccc1 (stereo not drawn) [Compound 105]	29.6	0.7	4610 ± 1010	26.8 ± 6.49	–	–	–
CC(Cc1ccc(N)cc1)NCCCc1ccc(F)cc1 (stereo not drawn) [Compound 112]	–	–	2500 ± 435	16.7 ± 3.34	–	–	Microsomal stability assays: Clearance [1]: 23.5 mL/min/kg; Microsomal stability assays: Half-life [1]: 0.9 h

SMILES	CLint scaled at 0.08 µM [1] [mL/min/kg]	half-life at 0.08 µM [1] [h]	Ki (hERG channel) [nM]	Ki (VMAT2 [2]; [5]) [nM]	Ki (VMAT2 [3]) [nM]	Ki (VMAT2 [2]; [6]) [nM]	other results
CC(Cc1ccc(F)cc1)NCCCc1ccc(F)cc1 (stereo not drawn) [Compound 190]	5.4	3.9	789 ± 221	8.28 ± 0.736	–	–	–
CC(Cc1ccc(F)cc1)NCCCc1ccnc2ccccc12 (stereo not drawn) [Compound 162]	102	0.2	2950 ± 1360	30.5 ± 8.59	–	–	–
CC(Cc1ccccc1)NCCCc1ccc(I)cc1 (stereo not drawn) [Compound 213]	–	–	642 ± 168	22.2 ± 2.21	–	–	Microsomal stability assays: Clearance [1]: <5.20 mL/min/kg; Microsomal stability assays: Half-life [1]: >4 h
CC(Cc1ccc(Br)cc1)NCCCc1ccc(F)cc1 (stereo not drawn) [Compound 200]	–	–	242 ± 76	15.2 ± 8.86	–	–	CLint scaled at 0.08 µM [4]: 186 mL/min/kg; half-life at 0.08 µM [4]: 0.3 h
CC(Cc1ccc([N+](=O)[O-])cc1)NCCCc1ccc(Br)cc1 (stereo not drawn) [Compound 121]	< 5.2	> 4	80 ± 67.7	13.4 ± 4.8	–	–	–
CC(Cc1ccc(C(F)(F)F)cc1)NCCCc1ccncc1 (stereo not drawn) [Compound 164]	–	–	1890 ± 639	53.3 ± 6.5	–	–	CLint scaled at 0.08 µM [4]: 83.3 mL/min/kg; half-life at 0.08 µM [4]: 0.6 h
CC(Cc1ccc(F)cc1)NCCCc1ccc2[nH]ccc2c1 (stereo not drawn) [Compound 55]	–	–	1550 ± 630	27.4 ± 8.93	–	–	CLint scaled at 0.08 µM [4]: > 400 mL/min/kg; half-life at 0.08 µM [4]: < 0.1 h
CC(Cc1ccc(F)c(F)c1)NCCCc1ccc(N)cc1 (stereo not drawn) [Compound 60]	–	–	3140 ± 1550	48.3 ± 16.4	–	–	CLint scaled at 0.08 µM [4]: 30.7 mL/min/kg; half-life at 0.08 µM [4]: 1 h
CC(Cc1ccc(NC=O)cc1)NCCCc1ccc(F)cc1 (stereo not drawn) [Compound 89]	–	–	738 ± 244	12.7 ± 2.85	–	–	Microsomal stability assays: Clearance [1]: 14 mL/min/kg; Microsomal stability assays: Half-life [1]: 1.5 h
CC(Cc1ccccc1)NCCCc1ccc(N)cc1 (stereo not drawn) [Compound 220]	–	–	5340 ± 5630	40.4 ± 4.72	–	–	CLint scaled at 0.08 µM [4]: 65.3 mL/min/kg; half-life at 0.08 µM [4]: 0.7 h
CC(Cc1ccc(C(F)(F)F)cc1)NCCCc1ccncc1 (stereo not drawn) [Compound 165]	< 5.2	> 4	1890 ± 639	53.2 ± 6.5	–	–	–
CC(Cc1ccc(-c2cncnc2)cc1)NCCCc1ccc(Cl)cc1 (stereo not drawn) [Compound 170]	–	–	199 ± 64.9	6.74 ± 2.59	–	–	CLint scaled at 0.08 µM [4]: 34.2 mL/min/kg; half-life at 0.08 µM [4]: 1.4 h
FCC(Cc1ccccc1)NCCCc1ccc(F)cc1 (stereo not drawn) [Compound 101]	–	–	4800 ± 940	14.7 ± 9.28	–	–	CLint scaled at 0.08 µM [4]: 253 mL/min/kg; half-life at 0.08 µM [4]: 0.2 h
CC(Cc1ccc([N+](=O)[O-])cc1)NCCCc1ccc(F)cc1 (stereo not drawn) [Compound 117]	–	–	206 ± 137	7.08 ± 1.29	–	–	CLint scaled at 0.08 µM [4]: 148 mL/min/kg; half-life at 0.08 µM [4]: 0.3 h
CC(Cc1ccccc1)NCCCc1ccc(I)cc1 (stereo not drawn) [Compound 212]	–	–	642 ± 168	22.2 ± 2.21	–	–	Microsomal stability assays: Clearance [4]: 439 mL/min/kg; Microsomal stability assays: Half-life [4]: 6 min
CC(Cc1ccc([N+](=O)[O-])cc1)NCCCc1ccc(F)cc1 (stereo not drawn) [Compound 120]	–	–	130 ± 25.6	9.85 ± 1.62	–	–	Microsomal stability assays: Clearance [1]: <5.20 mL/min/kg; Microsomal stability assays: Half-life [1]: >4 h
CC(Cc1ccc(NC=O)cc1)NCCCc1ccccc1 (stereo not drawn) [Compound 77]	11.2	1.9	1760 ± 630	21 ± 1.1	–	–	–
CC(Cc1ccc(F)cc1)NCCCc1ccc(Br)cc1 (stereo not drawn) [Compound 145]	–	–	506 ± 199	22.1 ± 6.5	–	–	Microsomal stability assays: Half-life [4]: 6 min; CLint scaled at 0.08 µM [4]: 402 mL/min/kg
